{"source": "paper PMC4907197", "about": "(Applied and Environmental Microbiology, 2016)", "key": {"KES23460": {"target": "T1, KES23460 (Pseudomonas sp. AAC, UniProt A0ABD3YRH9)", "T1 construct": "gene FG99_15390", "T1 sequence (A0ABD3YRH9 1-498)": "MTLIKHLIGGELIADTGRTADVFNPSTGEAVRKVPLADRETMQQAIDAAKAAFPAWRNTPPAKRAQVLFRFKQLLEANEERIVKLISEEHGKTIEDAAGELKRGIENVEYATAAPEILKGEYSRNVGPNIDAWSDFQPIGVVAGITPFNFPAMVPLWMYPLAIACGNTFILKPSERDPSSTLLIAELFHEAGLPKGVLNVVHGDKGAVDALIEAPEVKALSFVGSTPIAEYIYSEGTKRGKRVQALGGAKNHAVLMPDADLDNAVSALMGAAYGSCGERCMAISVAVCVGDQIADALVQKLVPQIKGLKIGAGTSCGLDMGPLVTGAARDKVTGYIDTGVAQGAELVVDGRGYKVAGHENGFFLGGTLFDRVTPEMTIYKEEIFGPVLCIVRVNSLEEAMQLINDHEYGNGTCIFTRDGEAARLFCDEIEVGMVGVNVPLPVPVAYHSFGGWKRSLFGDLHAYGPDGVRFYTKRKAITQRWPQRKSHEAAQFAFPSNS", "test": "KES23458-coupled NADH formation, A340", "assay_type": "biochemical", "conditions": "NAD, pH […]"}, "KES23458": {"target": "T2, KES23458 (Pseudomonas sp. AAC, UniProt Z9SKW1E3X5)", "T2 construct": "full length minus N-terminal Met by mass spectrometry; homodimer; phospho-His31 and phospho-His360 observed; deconvoluted MS peak 50,399 (reduced with PLP)", "T2 sequence (Z9SKW1E3X5 22-468)": "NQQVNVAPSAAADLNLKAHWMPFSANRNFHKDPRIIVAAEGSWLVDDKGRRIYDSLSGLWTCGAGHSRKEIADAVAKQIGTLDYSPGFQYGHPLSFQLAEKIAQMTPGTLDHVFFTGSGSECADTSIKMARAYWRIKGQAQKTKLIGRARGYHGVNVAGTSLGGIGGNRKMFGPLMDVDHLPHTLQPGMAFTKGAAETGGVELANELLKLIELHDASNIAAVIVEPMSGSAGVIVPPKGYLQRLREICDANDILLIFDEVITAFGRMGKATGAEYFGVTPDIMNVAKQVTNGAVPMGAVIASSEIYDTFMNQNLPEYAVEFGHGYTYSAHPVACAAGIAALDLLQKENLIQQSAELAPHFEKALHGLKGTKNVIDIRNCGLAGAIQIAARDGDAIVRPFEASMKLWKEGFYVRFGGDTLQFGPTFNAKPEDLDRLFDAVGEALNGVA", "test": "X-ray crystallography; mass spectrometry", "assay_type": "binding", "conditions": "crystal density atypical of PLP (PLP'), no aldimine seen; MS shows aldimine-bound unmodified PLP; covalent (Lys288 presumed); native structure 1.24 Å"}}, "data": [{"smiles": "CC(C)(COP(=O)(O)OP(=O)(O)OC[C@H]1O[C@@H](n2cnc3c(N)ncnc32)[C@H](O)[C@@H]1OP(=O)(O)O)[C@@H](O)C(=O)NCCC(=O)NCCS", "note": "[CoA]", "values": [{"measurement": "KES23458-coupled NADH formation, A340", "setting": "KES23460; co-substrate malonate semialdehyde formed in situ", "value": "In the presence of CoA, the transthioesterification step was observed to be significantly faster"}]}, {"smiles": "Cc1ncc(COP(=O)(O)O)c(C=O)c1O", "note": "[PLP]", "values": [{"measurement": "X-ray crystallography; mass spectrometry", "setting": "KES23458", "value": "with the mass gain corresponding to aldimine-bound unmodified PLP"}]}, {"smiles": "O=CCC(=O)O", "note": "[malonic acid semialdehyde]", "values": [{"measurement": "KES23458-coupled NADH formation, A340", "setting": "KES23460; formed in situ from […] beta-alanine and pyruvate by KES23458, with or without CoA", "value": "significant activity with only one of the substrates tested, malonic acid semialdehyde"}]}]}
